Experimental data as given in US12643881B2, “Bicyclic amine CDK12 inhibitors” (Incyte Corporation, priority 2021, dated 2026).
pIC50: −log10 of the molar value.

Target: T1, CDK12 complexed with Cyclin K (Homo sapiens, UniProt Q9NYV4)
T1 construct: GST (N)
Test: CDK Enzymatic Assays (HTRF, LANCE Ultra kinase assay), Example A1
Format: biochemical
Conditions: enzyme pre-incubated with compounds for 60 minutes prior to addition of ATP (1 mM final) and Ulight-peptide; reaction 60-90 minutes at room temperature
Text: Example A1. CDK Enzymatic Assays
The following activity of the CDK enzymes in complex with their respective cyclins we assayed: CDK1 complexed with Cyclin B1; CDK2 complexed with Cyclin E1; CDK4 complexed with Cyclin D1; CDK6 complexed with Cyclin D1; CDK6 complexed with Cyclin D3; CDK9 complexed with Cyclin T1; CDK7 complexed with Cyclin H/MAT1; CDK2 complexed with Cyclin A2; CDK5 complexed with p35; CDK12 complexed with Cyclin K; CDK13 complexed with Cyclin K. These in vitro enzyme activity are assayed using homogeneous time-resolved energy transfer (HTRF), which measures phosphorylation of a peptide substrate. The LANCER Ultra kinase assay (PerkinElmer) uses a ULight™-labeled EIF4E-binding protein 1 (THR37/46) peptide (DYSTTPGGTLFSTTPGTRI (SEQ ID NO: 1)) substrate and a Europium-labeled anti-phospho-4E-BP1 antibody (CDK2, CDK1, CDK4, CDK6, CDK9, CDK12, CDK13) or ULight™-labeled Myelin Basic Protein peptide (VTPRTPPP (SEQ ID NO: 2)) substrate and a Europium-labeled anti-phospho-MBP antibody (CDK7). Each CDK enzyme activity assays utilized human CDK co-expressed as N-terminal GST-tagged protein with its full length cyclin partner using a baculovirus expression system.
Enzyme was pre-incubated with compounds for 30 minutes (CDK1,2,4,6,9) or 60 minutes (CDK7, CDK12, CDK13) prior to addition of ATP and Ulight-peptide (1 mM and 50 nM final, respectively), in assay buffer containing 50 mM HEPES pH 7.5, 1 mM EGTA, 10 mM MgCl2, 2 mM DTT, 0.05 mg/mL BSA, and 0.01% Tween 20. The reaction was then incubated for 60-90 minutes at room temperature. The reactions were stopped by the addition of EDTA and Europium labeled antibody, for a final concentration of 15 mM and 1.0-1.5 nM, respectively. HTRF signals were read after 15-120 minutes. A ratio of fluorescence transferred to the labeled substrate (665 nm) relative to fluorescence of the Europium donor (620 nm) represents the extent of phosphorylation. Ratios for treated wells were normalized to DMSO only (100% activity) and no enzyme (0% activity) controls. Normalized data was analyzed using a three or four parameter dose response curve to determine IC50 for each compound and are shown in Table A. Control reference inhibitors were included on each plate.

T1 sequence (Q9NYV4 whole entry): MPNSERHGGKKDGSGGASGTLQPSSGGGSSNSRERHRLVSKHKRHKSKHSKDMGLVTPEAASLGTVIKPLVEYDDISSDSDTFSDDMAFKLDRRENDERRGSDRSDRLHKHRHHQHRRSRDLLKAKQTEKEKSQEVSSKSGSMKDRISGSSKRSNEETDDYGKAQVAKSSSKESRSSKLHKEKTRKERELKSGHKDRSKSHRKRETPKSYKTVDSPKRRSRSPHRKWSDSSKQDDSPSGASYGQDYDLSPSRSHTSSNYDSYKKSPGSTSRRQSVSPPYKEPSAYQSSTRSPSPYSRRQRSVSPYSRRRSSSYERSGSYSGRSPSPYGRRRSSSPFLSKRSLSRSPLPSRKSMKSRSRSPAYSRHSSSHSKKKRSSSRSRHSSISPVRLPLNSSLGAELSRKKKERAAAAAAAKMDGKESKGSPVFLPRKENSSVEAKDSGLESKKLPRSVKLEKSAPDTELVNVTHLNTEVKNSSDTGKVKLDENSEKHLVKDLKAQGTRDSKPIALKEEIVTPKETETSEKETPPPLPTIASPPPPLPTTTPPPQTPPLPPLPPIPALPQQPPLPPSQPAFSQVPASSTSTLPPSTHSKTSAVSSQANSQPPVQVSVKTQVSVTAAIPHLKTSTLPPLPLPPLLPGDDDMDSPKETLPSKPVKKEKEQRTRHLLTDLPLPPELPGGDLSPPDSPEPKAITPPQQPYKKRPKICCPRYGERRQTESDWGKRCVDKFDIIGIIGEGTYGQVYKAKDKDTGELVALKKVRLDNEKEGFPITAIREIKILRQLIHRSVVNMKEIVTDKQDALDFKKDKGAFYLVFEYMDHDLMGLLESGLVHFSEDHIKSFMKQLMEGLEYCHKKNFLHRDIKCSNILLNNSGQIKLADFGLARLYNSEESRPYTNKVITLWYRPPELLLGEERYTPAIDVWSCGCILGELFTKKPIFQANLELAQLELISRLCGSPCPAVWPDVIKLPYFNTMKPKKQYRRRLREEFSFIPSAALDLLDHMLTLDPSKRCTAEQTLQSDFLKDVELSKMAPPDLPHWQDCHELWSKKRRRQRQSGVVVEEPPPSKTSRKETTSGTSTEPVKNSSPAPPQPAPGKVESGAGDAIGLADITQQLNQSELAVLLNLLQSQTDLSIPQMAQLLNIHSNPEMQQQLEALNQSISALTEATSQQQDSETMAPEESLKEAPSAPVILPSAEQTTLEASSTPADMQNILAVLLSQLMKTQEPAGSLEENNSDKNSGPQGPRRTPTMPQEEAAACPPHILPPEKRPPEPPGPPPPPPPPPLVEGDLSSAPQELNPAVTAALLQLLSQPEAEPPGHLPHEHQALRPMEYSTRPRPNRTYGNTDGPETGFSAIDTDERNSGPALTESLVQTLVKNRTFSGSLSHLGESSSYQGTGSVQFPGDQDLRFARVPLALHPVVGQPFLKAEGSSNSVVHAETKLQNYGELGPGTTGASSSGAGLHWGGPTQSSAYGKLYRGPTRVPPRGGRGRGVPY
T1 sequence (O75909 whole entry partner): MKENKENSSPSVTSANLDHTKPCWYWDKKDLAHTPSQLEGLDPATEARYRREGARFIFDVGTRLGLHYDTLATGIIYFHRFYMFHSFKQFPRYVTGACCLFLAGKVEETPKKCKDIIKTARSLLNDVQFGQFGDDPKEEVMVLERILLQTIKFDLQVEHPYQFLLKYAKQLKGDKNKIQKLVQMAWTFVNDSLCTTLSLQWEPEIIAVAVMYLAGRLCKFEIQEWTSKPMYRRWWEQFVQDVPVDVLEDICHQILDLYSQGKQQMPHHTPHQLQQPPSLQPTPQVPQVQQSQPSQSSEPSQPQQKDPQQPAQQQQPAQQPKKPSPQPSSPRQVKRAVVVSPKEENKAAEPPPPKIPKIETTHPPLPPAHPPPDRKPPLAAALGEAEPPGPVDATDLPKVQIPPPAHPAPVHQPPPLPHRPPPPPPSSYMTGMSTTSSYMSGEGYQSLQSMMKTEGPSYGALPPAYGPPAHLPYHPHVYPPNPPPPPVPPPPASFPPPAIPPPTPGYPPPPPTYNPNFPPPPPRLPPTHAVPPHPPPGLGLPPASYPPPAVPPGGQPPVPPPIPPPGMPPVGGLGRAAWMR

Structure (SMILES)	pIC50
COc1nc(N[C@@H]2CCC[C@H](N3Cc4ccc(NC(=O)/C=C/CN(C)C)cc4C3=O)C2)ncc1C#N [Example 63, (E)-N-(2-((1S,3R)-3-((5-Cyano-4-methoxypyrimidin-2-yl)amino)cyclohexyl)-3-oxoisoindolin-5-yl)-4-(dimethylamino)but-2-enamide]	> 7.30
C=CC(=O)Nc1cc2nc(N3CC[C@@H](F)[C@@H](Nc4ncc(C(F)(F)F)cn4)C3)n(C)c2cc1C [Example 98, N-(2-((3S,4R)-4-Fluoro-3-((5-(trifluoromethyl)pyrimidin-2-yl)amino)piperidin-1-yl)-1,6-dimethyl-1H-benzo[d]imidazol-5-yl)acrylamide]	> 7.30
C=CC(=O)Nc1ccc2c(c1)C(=O)N([C@H]1CCC[C@@H](Nc3cc(C(F)(F)F)c(C#N)cn3)C1)C2 [Example 18, N-(2-((1S,3R)-3-((5-Cyano-4-(trifluoromethyl)pyridin-2-yl)amino)cyclohexyl)-3-oxoisoindolin-5-yl)acrylamide]	> 7.30
C=CC(=O)Nc1ccc2c(c1)C(=O)N([C@H]1CCC[C@@H](Nc3ccc(C#N)c(C)n3)C1)C2 [Example 15, N-(2-((1S,3R)-3-((5-Cyano-6-methylpyridin-2-yl)amino)cyclohexyl)-3-oxoisoindolin-5-yl)acrylamide]	< 6.30
C=CC(=O)Nc1ccc2c(c1)C(=O)N([C@H]1CCC[C@@H](Nc3ncc(CC)cn3)C1)C2 [Example 10, N-(2-((1S,3R)-3-((5-Ethylpyrimidin-2-yl)amino)cyclohexyl)-3-oxoisoindolin-5-yl)acrylamide]	> 7.30
C=CC(=O)Nc1cc2nc(N3C[C@H](F)C[C@@H](Nc4ncc(C(F)(F)F)cn4)C3)n(C)c2cc1C(C)C [Example 101, N-(2-((3R,5R)-3-Fluoro-5-((5-(trifluoromethyl)pyrimidin-2-yl)amino)piperidin-1-yl)-6-isopropyl-1-methyl-1H-benzo[d]imidazol-5-yl)acrylamide]	> 7.30
COc1nc(N[C@@H]2CCC[C@H](N3Cc4ccc(NC(=O)C(C)Br)cc4C3=O)C2)ncc1C#N (stereo partly drawn) [Example 55, 2-Bromo-N-(2-((1S,3R)-3-((5-cyano-4-methoxypyrimidin-2-yl)amino)cyclohexyl)-3-oxoisoindolin-5-yl)propanamide]	> 7.30
C=CC(=O)Nc1cc2nc(N3CCC(F)(F)[C@@H](Nc4ncc(C(F)(F)F)cn4)C3)n(C)c2cc1C [Example 97, (S)—N-(2-(4,4-Difluoro-3-((5-(trifluoromethyl)pyrimidin-2-yl)amino)piperidin-1-yl)-1,6-dimethyl-1H-benzo[d]imidazol-5-yl)acrylamide]	> 7.30
C=CC(=O)Nc1ccc2c(c1)C(=O)N([C@H]1CCC[C@@H](Nc3ncc(C)c(C(F)(F)F)n3)C1)C2 [Example 5, N-(2-((1S,3R)-3-((5-Methyl-4-(trifluoromethyl)pyrimidin-2-yl)amino)cyclohexyl)-3-oxoisoindolin-5-yl)acrylamide]	> 7.30
C#Cc1cnc(N[C@@H]2CCC[C@H](N3Cc4ccc(NC(=O)C=C)cc4C3=O)C2)nc1 [Example 17, N-(2-((1S,3R)-3-((5-Ethynylpyrimidin-2-yl)amino)cyclohexyl)-3-oxoisoindolin-5-yl)acrylamide]	> 7.30
C=CC(=O)Nc1cc2nc(N3C[C@H](F)C[C@@H](Nc4ncc(C(F)(F)F)cn4)C3)n(C)c2cc1C1CC1 [Example 95, N-(6-Cyclopropyl-2-((3R,5R)-3-fluoro-5-((5-(trifluoromethyl)pyrimidin-2-yl)amino)piperidin-1-yl)-1-methyl-1H-benzo[d]imidazol-5-yl)acrylamide]	> 7.30

Results, then the compound that gave them:

pIC50	Structure (SMILES)
> 7.30	C=CC(=O)Nc1ccc2c(c1)C(=O)N([C@H]1CCC[C@@H](Nc3ncc(C#N)c(N(C)C)n3)C1)C2 [Example 77, N-(2-((1S,3R)-3-((5-Cyano-4-(dimethylamino)pyrimidin-2-yl)amino)cyclohexyl)-3-oxoisoindolin-5-yl)acrylamide]
> 7.30	C=CC(=O)Nc1ccc2oc(N3CCC[C@@H](Nc4ncc(C#N)c(OC)n4)C3)nc2c1 [Example 36, (R)—N-(2-(3-((5-Cyano-4-methoxypyrimidin-2-yl)amino)piperidin-1-yl)benzo[d]oxazol-5-yl)acrylamide]
> 7.30	C=CC(=O)Nc1ccc2nc(N3CC[C@@H](Nc4ncc(C#N)c(OC)n4)C3)nn2c1 [Example 45, (R)—N-(2-(3-((5-Cyano-4-methoxypyrimidin-2-yl)amino)pyrrolidin-1-yl)-[1,2,4]triazolo[1,5-a]pyridin-6-yl)acrylamide]
> 7.30	C=CC(=O)Nc1nn(C)c2cc(N3CCC[C@@H](Nc4ncc(C#N)c(OC)n4)C3)ncc12 [Example 1, (R)—N-(6-(3-((5-Cyano-4-methoxypyrimidin-2-yl)amino)piperidin-1-yl)-1-methyl-1H-pyrazolo[4,3-c]pyridin-3-yl)acrylamide]
< 6.30	C=CC(=O)Nc1ccc2c(ccn2[C@H]2CCC[C@@H](Nc3ncc(C#N)c(OC)n3)C2)c1 [Example 26, N-(1-((1S,3R)-3-((5-Cyano-4-methoxypyrimidin-2-yl)amino)cyclohexyl)-1H-indol-5-yl)acrylamide]
> 7.30	C=C(Cl)C(=O)Nc1ccc2c(c1)nc([C@H]1CCC[C@@H](Nc3ncc(C#N)c(OC)n3)C1)n2C [Example 80, 2-Chloro-N-(2-((1S,3R)-3-((5-cyano-4-methoxypyrimidin-2-yl)amino)cyclohexyl)-1-methyl-1H-benzo[d]imidazol-5-yl)acrylamide]
> 7.30	COc1nc(N[C@@H]2CCCN(c3cc4c(cn3)c(NC(=O)C(C)Br)nn4C)C2)ncc1C#N (stereo partly drawn) [Example 32, 2-Bromo-N-(6-((R)-3-((5-cyano-4-methoxypyrimidin-2-yl)amino)piperidin-1-yl)-1-methyl-1H-pyrazolo[4,3-c]pyridin-3-yl)propanamide]
> 7.30	COc1nc(N[C@@H]2CCCN(c3cc4c(cn3)c(NC(=O)CCl)nn4C)C2)ncc1C#N [Example 33, (R)-2-Chloro-N-(6-(3-((5-cyano-4-methoxypyrimidin-2-yl)amino)piperidin-1-yl)-1-methyl-1H-pyrazolo[4,3-c]pyridin-3-yl)acetamide]
> 7.30	C=CC(=O)Nc1ccc2sc(N3CCC[C@@H](Nc4ncc(C#N)c(OC)n4)C3)nc2c1 [Example 40, (R)—N-(2-(3-((5-Cyano-4-methoxypyrimidin-2-yl)amino)piperidin-1-yl)benzo[d]thiazol-5-yl)acrylamide]
> 7.30	C=CC(=O)Nc1ccc2c(c1)nc(N1C[C@H](O)C[C@@H](Nc3ncc(C(F)(F)F)cn3)C1)n2C [Example 88, N-(2-((3R,5R)-3-Hydroxy-5-((5-(trifluoromethyl)pyrimidin-2-yl)amino)piperidin-1-yl)-1-methyl-1H-benzo[d]imidazol-5-yl)acrylamide]
6.30 to 7.30	COc1nc(N[C@@H]2CCC[C@H](c3nc4cc(NC(=O)C5OC5C(=O)O)ccc4n3C)C2)ncc1C#N (stereo partly drawn) [Example 51, 3-((2-((1S,3R)-3-((5-Cyano-4-methoxypyrimidin-2-yl)amino)cyclohexyl)-1-methyl-1H-benzo[d]imidazol-5-yl)carbamoyl)oxirane-2-carboxylic acid]
6.30 to 7.30	C=CC(=O)Nc1nn(C)c2cc(N3CC[C@@H](Nc4ncc(C#N)c(OC)n4)C3)ccc12 [Example 21, (R)—N-(6-(3-((5-Cyano-4-methoxypyrimidin-2-yl)amino)pyrrolidin-1-yl)-1-methyl-1H-indazol-3-yl)acrylamide]
> 7.30	C=CC(=O)Nc1ccc2c(c1)nc(N1C[C@H](F)C[C@@H](Nc3ncc(C#N)cn3)C1)n2C [Example 89, N-(2-((3R,5R)-3-((5-Cyanopyrimidin-2-yl)amino)-5-fluoropiperidin-1-yl)-1-methyl-1H-benzo[d]imidazol-5-yl)acrylamide]
> 7.30	C=CC(=O)Nc1cccc2c(N3CCC[C@@H](Nc4ncc(C#N)c(OC)n4)C3)noc12 [Example 28, (R)—N-(3-(3-((5-Cyano-4-methoxypyrimidin-2-yl)amino)piperidin-1-yl)benzo[d]isoxazol-7-yl)acrylamide]
> 7.30	C=CC(=O)Nc1ccc2c(c1)nc(N1CCC[C@@H](Nc3ncc(C#N)c(OC)n3)C1)n2C [Example 37, (R)—N-(2-(3-((5-Cyano-4-methoxypyrimidin-2-yl)amino)piperidin-1-yl)-1-methyl-1H-benzo[d]imidazol-5-yl)acrylamide]
> 7.30	C=CC(=O)Nc1ccc2c(c1)nc([C@H]1CCC[C@@H](Nc3ncc(C#N)c(OC)n3)C1)n2CCO [Example 47, N-(2-((1S,3R)-3-((5-Cyano-4-methoxypyrimidin-2-yl)amino)cyclohexyl)-1-(2-hydroxyethyl)-1H-benzo[d]imidazol-5-yl)acrylamide]
